# Laboratory results from patent US20240041898A9, “NEUROSTEROIDS AND ENANTIOMERS THEREOF FOR THE PREVENTION AND TREATMENT OF NEURODEGENERATIVE CONDITIONS” (priority 2019, published 2024).
# Several values for one entry are separate records, joined by “and”; a condition that tells them apart may be missing. Equal entries are not always repeated.
# Assays:
# [1] = test system: TUNEL-positive RGCs; experiment: Rat in vivo OHT model, TUNEL staining; conditions: OHT eyes, intravitreal, three weeks after bead injection; single values
# Method: (§1) Example 7. Rat in vivo OHT model induced by intracameral injection of microbeads—For induction of ocular hypertension (OHT) in vivo, sterile 6 μm polystyrene microbeads were injected into the anterior chamber of the left eye of each animal using a single-step, sclero-corneal tunnel approach with a 35G nanoneedle (FIG. 4A). […] After stabilization of elevated IOP, animals were randomly divided into 3 groups (non-treated OHT, AlloP injection, and ent-AlloP injection). AlloP and ent-AlloP were administered as a one-time intravitreal injection one week following bead injection. Non-treated OHT animals received sterile vehicle intravitreally. […]
# Apoptosis—To visualize apoptotic cells, a DeadEnd™ Colorimetric TUNEL (TdT-mediated dUTP Nick-End Labeling) System (Promega, Madison, WI) was used according to the manufacturer's instructions. […] After the length of each retinal section was measured (Image-Pro Plus software), the cells were counted in the whole section length and the number of cells was normalized per 200 μm of retinal section. The number of apoptotic cells was evaluated by Dunnett's multiple comparison test to determine changes in the density of apoptotic cells among experimental retinas treated with 1 μM AlloP or 1 μM ent-AlloP at 75 mmHg and control retinas incubated with aCSF at 75 mmHg. […]
# [2] = test system: retinal ganglion cells (RGCs); experiment: Rat in vivo OHT model, NeuN-positive RGC survival in whole mount retina; conditions: OHT eyes, intravitreal, three weeks after microbead injection; single values
# Method: as §1, with “intravitreally. As a further control, vehicle was intravitreally injected 7 days after intracameral administration of 10 μl of PBS. Three weeks after bead injections, IOP was 26.7±3.7 mmHg in non-treated OHT eyes compared to 9.9±0.9 mmHg in control eyes.” for “intravitreally.”
# [3] = test system: NFL and optic nerves (ON); experiment: Rat in vivo OHT model, electron microscopy of AP and DAV in NFL and optic nerve; conditions: in vivo OHT eyes; for Autophagosomes (AP) in the NFL (FIG. 5M), Total / Degenerative autophagic vacuoles (DAV) in the NFL (FIG. 5N), Total: Total of 10 areas; for Autophagosomes (AP)/25 μm2 in the NFL (FIG. 5M), individual areas 1-10 / Degenerative autophagic vacuoles (DAV)/25 μm2 in the NFL (FIG. 5N), individual areas 1-10 / Autophagosomes (AP)/100 μm2 in the ON (FIG. 5Y), individual areas 1-10 / Degenerative autophagic vacuoles (DAV)/100 μm2 in the ON (FIG. 5Z), individual areas 1-10: single values
# Method: (§2) Example 7. Rat in vivo OHT model induced by intracameral injection of microbeads—For induction of ocular hypertension (OHT) in vivo, sterile 6 μm polystyrene microbeads were injected into the anterior chamber of the left eye of each animal using a single-step, sclero-corneal tunnel approach with a 35G nanoneedle (FIG. 4A). […] After stabilization of elevated IOP, animals were randomly divided into 3 groups (non-treated OHT, AlloP injection, and ent-AlloP injection). AlloP and ent-AlloP were administered as a one-time intravitreal injection one week following bead injection. Non-treated OHT animals received sterile vehicle intravitreally. As a further control, vehicle was intravitreally injected 7 days after intracameral administration of 10 μl of PBS. Three weeks after bead injections, IOP was 26.7±3.7 mmHg in non-treated OHT eyes compared to 9.9±0.9 mmHg in control eyes.
# Rat in vivo OHT model—8-week old male Sprague-Dawley rats were deeply anesthetized with an intraperitoneal injection of a mixture of medetomidine hydrochloride (Cat #133-17474, CAS. No 86347-15-1, Wako Pure Chemical Industries Ltd., Osaka, Japan, 0.15 mg/kg), midazolam (Cat #135-13791, CAS. No 58786-99-5, Wako Pure Chemical Industries Ltd., 2 mg/kg), and butorphanol tartrate (Cat #021-19001, CAS. No […], Wako Pure Chemical Industries Ltd., 2.5 mg/kg), and intraocular pressure was increased unilaterally to approximately 35 mmHg, by intracameral injection of polystyrene microbeads using a single-step, sclero-corneal tunnel approach with a 35G-gauge nanoneedle (#LNAN-3505LM, Saito Medical Instruments Inc., Tokyo, Japan) connected to 100 μl WPI Nanofil 100 microsyringe (World Precision Instruments, Inc., Sarasota, FL). Sterile 6 μm polystyrene microbeads in a 1×10^6 microbeads/ml solution (Molecular Probes, Eugene, OR, USA) were concentrated to obtain a 1×10^7 microbeads/ml solution. This solution was suspended in PBS. The microbeads suspended in PBS were aspirated into a 100 μl Hamilton microsyringe and injected into the anterior chamber of […] of each animal. 10 μl of the microbead suspension were injected without contacting the cornea or iris with the needle. After stabilization of the elevated IOP, animals were randomly divided into 3 groups (non-treated OHT, AlloP injection, and ent-AlloP injection). AlloP and ent-AlloP were dissolved in 20% w/v (2-Hydroxypropyl)-β-cyclodextrin (2HBCD) in saline solution at concentration of 0.05% (w/v) solution, and injected into the vitreous chamber in a total volume of 1 μl using a Hamilton syringe adapted with a 35 G-gauge nanoneedle 1 week after the beads were injected under halothane inhalation anesthesia. OHT animals (vehicle control) received sterile 1 μl 20% (w/v) 2HBCD with PBS. As a further control, 1 μl 20% (w/v) 2HBCD was intravitreally injected 7 days after intracameral injection with 10 μl of PBS. The number of animals used in each experiment is indicated in the corresponding method. […] Ocular hypertension was monitored preoperatively, and at 3 days, 1 week, 2 weeks or 3 weeks after the beads were injected. IOP was measured using a laboratory tonometer (TonoLab, Icare, Finland).
# Electron Microscopy—Retinal specimens were trimmed to a smaller size, and ultrathin sections (75 nm) were cut with a diamond knife and suspended over formvar-coated slot grids (1×2 mm opening). The sections were stained with uranyl acetate and lead citrate and viewed in a transmission electron microscope (H-7650, Hitachi High-Technologies Corp., Tokyo, Japan). Numbers of AP and DAV inside NFLs and axons were determined as the sum in 10 different areas of 25 μm^2 each from each sample. The analysis was performed in three eyes per experimental condition.
# [4] = test system: LC3-II; experiment: Rat in vivo OHT model, Western blot of LC3-II; conditions: in vivo OHT eyes, 3 weeks after microbead injection, relative units, control = 1.00; for LC3-II expression (FIG. 6B), individual experiments 1-4: single values
# Method: as §2
# Rat in vivo OHT model—8-week old male Sprague-Dawley rats were deeply anesthetized with an intraperitoneal injection of a mixture of medetomidine hydrochloride (Cat #133-17474, CAS. No 86347-15-1, Wako Pure Chemical Industries Ltd., Osaka, Japan, 0.15 mg/kg), midazolam (Cat #135-13791, CAS. No 58786-99-5, Wako Pure Chemical Industries Ltd., 2 mg/kg), and butorphanol tartrate (Cat #021-19001, CAS. No […], Wako Pure Chemical Industries Ltd., 2.5 mg/kg), and intraocular pressure was increased unilaterally to approximately 35 mmHg, by intracameral injection of polystyrene microbeads using a single-step, sclero-corneal tunnel approach with a 35G-gauge nanoneedle (#LNAN-3505LM, Saito Medical Instruments Inc., Tokyo, Japan) connected to 100 μl WPI Nanofil 100 microsyringe (World Precision Instruments, Inc., Sarasota, FL). Sterile 6 μm polystyrene microbeads in a 1×10^6 microbeads/ml solution (Molecular Probes, Eugene, OR, USA) were concentrated to obtain a 1×10^7 microbeads/ml solution. […] Ocular hypertension was monitored preoperatively, and at 3 days, 1 week, 2 weeks or 3 weeks after the beads were injected. IOP was measured using a laboratory tonometer (TonoLab, Icare, Finland). […]
# [5] = test system: GABAA receptors; conditions: cited from earlier work
Compound,"TUNEL staining (FIG. 4I), number of TUNEL-positive RGCs, individual 1-5 [1]","RGC Survival (FIG. 4N), number of NeuN-positive cells, individual 1-5 [2]","Autophagosomes (AP) in the NFL (FIG. 5M), Total ([3]; intravitreal)","Degenerative autophagic vacuoles (DAV) in the NFL (FIG. 5N), Total ([3]; intravitreal)","Autophagosomes (AP)/25 μm2 in the NFL (FIG. 5M), individual areas 1-10 ([3]; intravitreal)","Degenerative autophagic vacuoles (DAV)/25 μm2 in the NFL (FIG. 5N), individual areas 1-10 ([3]; intravitreal)","Autophagosomes (AP)/100 μm2 in the ON (FIG. 5Y), individual areas 1-10 ([3]; optic nerve)","Degenerative autophagic vacuoles (DAV)/100 μm2 in the ON (FIG. 5Z), individual areas 1-10 ([3]; optic nerve)","LC3-II expression (FIG. 6B), individual experiments 1-4 [4]",action on GABAA receptors [5],"Degenerative autophagic vacuoles (DAV)/25 μm2 in the NFL (FIG. 5N), Average ([3]; intravitreal, Average of 10)","Autophagosomes (AP)/100 μm2 in the ON (FIG. 5Y), Average ([3]; optic nerve, Average of 10)","Degenerative autophagic vacuoles (DAV)/100 μm2 in the ON (FIG. 5Z), Average ([3]; optic nerve, Average of 10)","LC3-II expression (FIG. 6B), Average ([4]; Average of 4)"
"CC(=O)[C@@H]1CC[C@@H]2[C@H]3CC[C@@H]4C[C@@H](O)CC[C@@]4(C)[C@@H]3CC[C@]21C [ent-AlloP, ent-allopregnanolone]",1 per 200 μm of retinal sections (2×) and 0 per 200 μm of retinal sections (3×),2060 per square millimeter and 2260 per square millimeter and 2500 per square millimeter and 2200 per square millimeter and 2460 per square millimeter,1,22,0 /25 μm2 (9×) and 1 /25 μm2,1 /25 μm2 and 2 /25 μm2 (5×) and 4 /25 μm2 (2×) and 3 /25 μm2 and 0 /25 μm2,0 /100 μm2 (9×) and 1 /100 μm2,0 /100 μm2 and 1 /100 μm2 (8×) and 2 /100 μm2,4.96 and 4.97 and 4.27 and 5.04,weak actions,,,,
"CC(=O)[C@H]1CC[C@H]2[C@@H]3CC[C@H]4C[C@H](O)CC[C@]4(C)[C@H]3CC[C@]12C [AlloP, allopregnanolone]",1 per 200 μm of retinal sections (2×) and 0 per 200 μm of retinal sections (3×),2200 per square millimeter and 2240 per square millimeter and 1940 per square millimeter and 1860 per square millimeter and 1800 per square millimeter,12,5,2 /25 μm2 (2×) and 1 /25 μm2 (8×),0 /25 μm2 (7×) and 2 /25 μm2 (2×) and 1 /25 μm2,1 /100 μm2 (9×) and 2 /100 μm2,0 /100 μm2,2.73 and 3.32 and 2.82 and 3.11,strong enhancer,0.5 /25 μm2,1.1 /100 μm2,0.0 /100 μm2,3.00
